pIC50: −log10 of the molar value.
Key:
Assay type in all cases: cell-based
[1] = molecular target: T1, CXCR3 (Homo sapiens, UniProt P49682); assay: Chemotaxis assay IP10, L1.2 recombinant cells expressing hCXCR3; settings: L1.2 hCXCR3 cells, IP10 around 0.3 nM, 4 hours
T1 sequence (P49682 1-368): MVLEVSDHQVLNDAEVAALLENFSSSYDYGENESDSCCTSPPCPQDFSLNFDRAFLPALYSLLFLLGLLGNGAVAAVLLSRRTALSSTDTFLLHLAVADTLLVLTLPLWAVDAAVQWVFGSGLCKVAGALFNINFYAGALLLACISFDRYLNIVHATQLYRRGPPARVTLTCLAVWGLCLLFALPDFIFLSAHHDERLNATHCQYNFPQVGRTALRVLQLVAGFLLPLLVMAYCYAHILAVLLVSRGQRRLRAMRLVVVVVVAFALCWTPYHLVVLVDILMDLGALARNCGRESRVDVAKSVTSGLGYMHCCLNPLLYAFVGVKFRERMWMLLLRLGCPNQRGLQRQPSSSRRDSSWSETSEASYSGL
Experimental: Human CXCR3 cDNA was amplified by PCR from a human cells cDNA library (Clontech) and subcloned into pcDNA3.1 (Invitrogen). Murine pre-B L1.2 cells were transfected with hCXCR3-pcDNA3.1 and were grown at 37° C., 5% CO2 in RPMI 1640 medium (Invitrogen, USA) supplemented with 5% heat inactivated fetal calf serum (Cancerra, Australia), 2 mM glutamine (Invitrogen), 50 units ml−1 penicillin, 50 μml−1 streptomycin. Stable transfectant clonal populations were selected using 800 μg/ml geneticin.
L1.2 recombinant cells expressing the receptor hCXCR3 were maintained in culture in RPMI 1640 (invitrogen), 5% Foetal Bovine Serum (invitrogen), 2 mM glutamine(invitrogen), 50 u/ml penicillin/streptomycin (invitrogen), at 37° C.-5% CO2—in an H2O saturated incubator. In order to stimulate the expression of the receptor, cells were incubated overnight with 5 mM butyric acid (Sigma)
This mix of cells/compounds was then incubated at 37° C.-5% CO2—in an H2O saturated incubator during 30 minutes. Cells were then dispensed as a drop on each corresponding wells of the chemotaxis system. Cell migration was then induced at 37° C.-5% CO2—in an H2O incubator during 4 hours. Filters were then removed and cells that had migrated were transferred in a black plate (Costar). The plates were stored overnight at −80° C. Cell migration ratio was calculated using the cyquant dye (Molecular Probes-C7026).

[2] = molecular target: T1, CXCR3; assay: CXCR3 Ca2+ mobilization (FLIPR), stable hCXCR3-CHO cell line, I-TAC stimulated; parameters: host or cells: CHO cells stably expressing hCXCR3; settings: hCXCR3-CHO cells, I-TAC 100 nM stimulated Ca2+ response; read-out: Ca-ITAC
Method in brief: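 CHO cells stably expressing hCXCR3, grown 18 hours after plating, loaded with calcium indicator dye 60 minutes; compounds equilibrated 20 minutes at room temperature. Fluorescence change evoked by 100 nM I-TAC read on FLIPR; activity expressed as percent of I-TAC response without compound (100%).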

[3] = molecular target: T1, CXCR3; assay: Chemotaxis assay ITAC (CXCL11), L1.2-CXCR3 cells; parameters: expressed in transfected cells; settings: 1 nM CXCL11 (I-TAC), 4 hours
Method in brief: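 Murine pre-B L1.2 cells stably expressing human CXCR3, pretreated 24 h with 5 mM butyric acid, preincubated with compound 30 min at 37 °C in 1% DMSO. Migration toward 1 nM CXCL11 (also with compound) through 8 μm filters for 4 h at 37 °C; migrated cells counted with CyQuant GR dye.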

Compound | IC50 [1] | pIC50 [2] | pIC50 [3]
N#Cc1ccc(S(=O)(=O)N(Cc2ccc(-c3nnn[nH]3)c(F)c2)Cc2ccccc2F)cc1 [Example 81, 4-cyano-N-(2-fluorobenzyl)-N-[3-fluoro-4-(2H-tetrazol-5-yl)benzyl]benzene sulfonamide] | 0.193 µM | 7.10 | 6.25
N#Cc1ccc(S(=O)(=O)N(Cc2ccc(C(=O)NCC(O)c3ccccc3)cc2)Cc2ccccn2)cc1 (stereo not shown) [Example 102] | 0.01 µM | 7.70 | 7.70
O=C(Nc1ccc(CN(Cc2ccccn2)S(=O)(=O)c2ccc(Cl)cc2)cc1)C1(c2ccccc2)CC1 [Example 162, 1-Phenyl-cyclopropanecarboxylic acid (4-{[(4-chloro-benzenesulfonyl)-pyridin-2-ylmethyl-amino]-methyl}-phenyl)-amide] | 0.07 µM | 6.77 | 6.77
COCCCS(=O)(=O)NC(=O)c1ccc(CN(Cc2ccccn2)S(=O)(=O)c2ccc(Cl)cc2)cc1 [Example 54, N-(3-methoxy-propane-1-sulfonyl)-4-{[[(4-chlorophenyl)sulfonyl](pyridin-2-yl-methyl)amino]methyl}benzamide] | 3.83 µM | 5.25 | –
CC(CNC(=O)c1ccc(CN(Cc2ccccn2)S(=O)(=O)c2ccc(C#N)cc2)cc1)c1ccccc1 (stereo not shown) [Example 98] | 0.16 µM | 6.40 | –
CCOc1ccc(S(=O)(=O)N(Cc2ccc(C(=O)O)cc2)Cc2cccnc2)cc1 [Example 157] | 4.18 µM | 5.79 | –
O=C(O)c1ccc(CN(Cc2ccccc2F)S(=O)(=O)c2ccc(Cl)cc2)cc1F [Example 65, 4-{[(4-Chloro-benzenesulfonyl)-(2-fluoro-benzyl)-amino]-methyl}-2-fluorobenzoic acid] | 0.513 µM | 6.00 | 5.64
CCOc1ccc(S(=O)(=O)N(Cc2ccc(C(=O)NC3(c4ccccc4)CC3)cc2)Cc2cccnc2)cc1 [Example 93] | 0.04 µM | 7.52 | –
N#Cc1ccc(S(=O)(=O)N(Cc2ccc(C(=O)NC3(c4cccc(C#N)c4)CC3)cc2)Cc2ccccn2)cc1 [Example 101] | 0.19 µM | 7.22 | –
CS(=O)(=O)CCCS(=O)(=O)NC(=O)c1ccc(CN(Cc2ccccn2)S(=O)(=O)c2ccc(Cl)cc2)cc1 [Example 53, N-(1-methylsulfonyl-3-propylsulfonyl)-4-{[[(4-chlorophenyl)sulfonyl](pyridin-2-yl-methyl)amino]methyl}benzamide] | 1.32 µM | 5.77 | –
CC(C)(C)c1nc(CN(Cc2ccc(-c3nnn[nH]3)cc2)S(=O)(=O)c2ccc(Cl)cc2)no1 [Example 69, 4-chloro-N-(5-tert-butyl-1,2,4-oxadiazol-3-ylmethyl)-N-[4-(2H-tetrazol-5yl)benzyl]benzene sulfonamide] | 0.254 µM | 7.25 | 6.25
O=C(Cc1cccc(Cl)c1)Nc1ccc(CN(Cc2ccccn2)S(=O)(=O)c2ccc(Cl)cc2)cc1 [Example 160] | 0.12 µM | 7.00 | –
N#Cc1ccc(S(=O)(=O)N(Cc2ccc(NC(=O)C3(c4ccccc4)CC3)cc2)Cc2ccccn2)cc1 [Example 163] | 0.02 µM | 7.70 | 6.92
O=C(NS(=O)(=O)c1cccc(F)c1)c1ccc(CN(Cc2ccccn2)S(=O)(=O)c2ccc(Cl)cc2)cc1 [Example 51, N-(3-fluorobenzenesulfonyl)-4-{[[(4-chlorophenyl)sulfonyl](pyridin-2-yl-methyl)amino]methyl}benzamide] | 0.339 µM | 6.88 | –
N#Cc1ccc(S(=O)(=O)N(Cc2ccc(NC(=O)Cc3cccc(Cl)c3)cc2)Cc2ccccn2)cc1 [Example 161] | 0.06 µM | 7.70 | –
CC(C)(C)OC(=O)N1C[C@@H]2[C@H](C1)[C@H]2NC(=O)c1ccc(CN(Cc2ccccn2)S(=O)(=O)c2ccc(C#N)cc2)cc1 [Example 96] | 0.01 µM | 8.00 | –

More lines, now with the values ahead:

IC50 [1] | pIC50 [2] | pIC50 [3] | Compound
0.158 µM | 7.26 | 6.04 | CCOc1ccc(S(=O)(=O)N(Cc2ccc(-c3nnn[nH]3)c(F)c2)Cc2ccccn2)cc1 [Example 80]
0.409 µM | 6.30 | 6.39 | O=S(=O)(c1ccc(Cl)cc1F)N(Cc1ccc(-c2nnn[nH]2)cc1)Cc1ccccn1 [Example 77]
0.01 µM | 8.00 | 7.52 | CCOc1ccc(S(=O)(=O)N(Cc2ccc(C(=O)NC3(c4ccccc4)CC3)cc2)Cc2ccccn2)cc1 [Example 88]
0.44 µM | 5.30 | 5.75 | O=S(=O)(c1ccc(Cl)cc1)N(Cc1ccccn1)Cc1ccc(-c2nnn[nH]2)cc1F [Example 57, 4-chloro-N-[2-fluoro-4-(1H-tetrazol-5-yl)benzyl]-N-(pyridin-2 ylmethyl)benzene sulfonamide]
0.236 µM | 8.00 | 5.98 | N#Cc1ccc(S(=O)(=O)N(Cc2ccc(-c3nnn[nH]3)cc2)Cc2ccccc2F)cc1 [Example 83, 4-cyano-N-(2-fluorobenzyl)-N-[4-(2H-tetrazol-5-yl)benzyl]benzenesulfonamide]
0.183 µM | 7.36 | 6.67 | O=S(=O)(c1ccc(Cl)cc1)N(Cc1ccc(-c2nnn[nH]2)cc1)Cc1c(F)cccc1F [Example 62, 4-chloro-N-(2,6-difluorobenzyl)-N-[4-(2H-tetrazol-5-yl)benzyl]benzene sulfonamide]
1.16 µM | 5.28 | – | O=S(=O)(c1ccc(Cl)cc1)N(Cc1ccc(-c2nnn[nH]2)c(F)c1)Cc1ccccn1 [Example 56, 4-chloro-N-[3-fluoro-4-(1H-tetrazol-5-yl)benzyl]-N-(pyridin-2 ylmethyl)benzene sulfonamide]
1.13 µM | 5.52 | 5.50 | O=C(O)c1ccc(CN(Cc2ccccn2)S(=O)(=O)c2ccc(Cl)cc2)cc1F [Example 64, 4-{[(4-Chloro-benzenesulfonyl)-pyridin-2-ylmethyl-amino]-methyl}-2-fluoro-benzoic acid]
0.233 µM | 5.94 | – | N#Cc1ccc(S(=O)(=O)N(Cc2ccc(-c3nnn[nH]3)cc2)Cc2ccccn2)cc1 [Example 47, 4-cyano-N-(pyridin-2-ylmethyl)-N-[4-(2H-tetrazol-5-yl)benzyl]benzenesulfonamide]
0.911 µM | 6.52 | – | O=S(=O)(c1ccc(Cl)cc1)N(Cc1ccc(-c2nnn[nH]2)cc1)Cc1cc2ccccc2cn1 [Example 76, 4-chloro-N-(isoquinolin-3-ylmethyl)-N-[4-(2H-tetrazol-5yl)benzyl]benzene sulfonamide]
0.548 µM | 6.38 | – | O=S(=O)(c1ccc(Cl)cc1)N(Cc1ccc(-c2nnn[nH]2)cc1)Cc1ccccc1Cl [Example 63, 4-chloro-N-(2-chlorobenzyl)-N-[4-(2H-tetrazol-5-yl)benzyl]benzenesulfonamide]
0.01 µM | 7.70 | 7.70 | CCOc1ccc(S(=O)(=O)N(Cc2ccc(C(=O)NCC(O)c3ccccc3)cc2)Cc2ccccn2)cc1 (stereo not shown) [Example 84]
